From ChEMBL document CHEMBL6177952, “Exploring chloro-isoxazole compounds inspired on tetrahydrofuran neolignans as promising antileishmanial agents” (Eur J Med Chem, 2025)
pIC50: −log10 of the molar value. The source made the active and inactive calls. The rule behind the calls is not given here.

Tests used:
[1] = Cytotoxicity against BALB/c mouse Peritoneal macrophage assessed as inhibition of cell growth incubated for 48 hrs by MTT assay; format: toxicity, cell-based; settings: peritoneal macrophages
Leishmania amazonensis [2] = experiment: Antileishmanial activity against leishmania amazonensis IFLA/BR/1967/PH8 promastigotes infected in mouse Peritoneal macrophage incubated for 24 hrs; format: functional, organism-based; settings: IFLA/BR/1967/PH8, Peritoneal macrophage
[3] = Selectivity ratio of CC50 for cytotoxicity against BALB/c mouse Peritoneal macrophage assessed as inhibition of cell growth to IC50 for antileishmanial activity against leishmania amazonensis IFLA/BR/1967/PH8 intracellular amastigote infected in mouse Peritoneal macrophage; format: toxicity, cell-based; settings: peritoneal macrophages, read-out: Ratio CC50/IC50
Leishmania amazonensis [4] = experiment: Potency index, ratio of Amphotericin B IC50 to test compound IC50 for antileishmanial activity against leishmania amazonensis IFLA/BR/1967/PH8 promastigotes infected in mouse Peritoneal macrophage incubated for 24 hrs; format: functional
Leishmania amazonensis [5] = experiment: Potency index, ratio of pentamidine IC50 to test compound IC50 for antileishmanial activity against leishmania amazonensis IFLA/BR/1967/PH8 promastigotes infected in mouse Peritoneal macrophage incubated for 24 hrs; format: functional
Leishmania amazonensis [6] = experiment: Antileishmanial activity against leishmania amazonensis infected in BALB/c mouse assessed as reduction in lesion size at 5 mg/kg, ILES measured at 6 to 9 week post infection; format: functional, organism-based; settings: time 6-9 weeks
Leishmania amazonensis [7] = experiment: Antileishmanial activity against leishmania amazonensis infected in BALB/c mouse assessed as reduction in parasitism in draining lymph node at 5 mg/kg, ILES measured after 65 days post infection by limiting dilution assay; format: functional, organism-based; settings: time 65.0 day
Leishmania amazonensis [8] = experiment: Antileishmanial activity against leishmania amazonensis infected in BALB/c mouse assessed as reduction in […] at 5 mg/kg, ILES measured after 65 days post infection by limiting dilution assay; format: functional, organism-based; settings: time 65.0 day
[9] = Mutagenicity in Salmonella typhimurium TA98 assessed as number of revertant colonies per plate at 5000 microg/ml by Ames test; format: toxicity; settings: salmonella enterica subsp. enterica serovar typhimurium; dose 5000 µg/ml
[10] = Mutagenicity in Salmonella typhimurium TA102 assessed as number of revertant colonies per plate at 1500 microg/ml by Ames test; format: toxicity; settings: salmonella enterica subsp. enterica serovar typhimurium; dose 1500 µg/ml
Leishmania amazonensis [11] = experiment: Antileishmanial activity against Leishmania amazonensis promastigotes assessed as late apoptotic parasites at 38.1 uM incubated for 72 hrs by Annexin V/7-AAD staining based flow cytometry analysis relative to control; format: functional

Question: For `COc1cc(-c2cc(-c3ccc4c(c3)OCO4)on2)c(Cl)c(OC)c1OC`, which CC50 at 48 h [1] is on record?
Answer: 50.1 µM

Question: And the pIC50 (Leishmania amazonensis [2])?
Answer: 4.42

Question: What about the selectivity ratio [3] of the same molecule?
Answer: 22.7

Question: What about the “Ratio IC50” value (Leishmania amazonensis [4]) of the same molecule?
Answer: 3.6

Question: And the “Ratio IC50” value (Leishmania amazonensis [5])?
Answer: 29

Question: What about the Activity (Leishmania amazonensis [6]) of the same molecule?
Answer: Active

Question: What about the Activity (Leishmania amazonensis [7]) of the same molecule?
Answer: Active

Question: And the Activity (Leishmania amazonensis [8])?
Answer: Active

Question: What about the revertant count [9] of the same molecule?
Answer: 21.3 revertants/plate

Question: What about the Activity [10] of the same molecule?
Answer: 182 revertants/plate

Question: And the Activity (Leishmania amazonensis [11])?
Answer: 1.9%
